Assay [1] has as its system acute wounds. Put plainly: Acute wound healing, full-thickness punch biopsy wound model in immunocompetent mice. In kind it is in vivo, BALB/c mice. An excerpt:
(§1) The histamine composition was applied topically on 5-millimeter mid-dorsal full thickness wounds and covered with either Tegaderm™ (transparent film dressing) or a silk dressing and irradiated with 800 nm near infrared laser (NIR) light.
(§2) Post-wounding, the mice were recovered for 7-11 days and their healing kinetics were monitored for different treatment groups.
(§3) An example protocol is as follows. Full-thickness punch biopsy dorsal wounds were created on mice, bioactive wound dressing applied, and the wounds were splinted to prevent wound closure by contraction. Either immunomodulator molecule was delivered on the day of wounding or a later time-point to accelerate wound healing.
FIG. 1 includes images of a wound closure procedure, which was performed with BALB/c mice (about 8-10 weeks old), with a wound size of about 5 mm (n=10), and with a histamine concentration of 3.4 mg/kg per mouse.
Additionally, Elastin-Like Polypeptide (ELP) was used alone as a control. We tested whether ELP in itself influenced healing efficacy. These studies were performed in BALB/c mice (acute wounds), 5 mm wounds, ELP concentration 2 μM (per wound/mouse). Histamine and GFNPs concentration were 3.4 mg/kg and 2 μM, respectively. Histamine and GFNPs concentration were same as previous reported studies. The GFNPs used in this study is SDF1-ELP.
A histamine double dosage control (e.g., two sequential dosage of histamine) was investigated. […] These studies were performed in BALB/c mice (acute wounds) and in 5 mm wounds. Histamine and GFNPs concentration were 3.4 mg/kg and 2 μM, respectively. Histamine and GFNPs concentration were same as previous reported studies. The GFNPs used in this study is SDF1-ELP. We delivered histamine in the following manner: Histamine along with silk fibroin dressing on Day 0 post wounding (like previous studies); Histamine delivered on Day 3 post wounding. Wounds were treated with PBS and silk fibroin film alone on Day 0; Histamine along with silk fibroin on Day 0 post wounding+ second dose of histamine on Day 3 post wounding delivered using subcutaneous injection; and Histamine along with silk fibroin on Day 0 post wounding+ GFNPs delivered sequentially on Day 3 post wounding.

Assay [2] relates to acute and slow healing diabetic wounds. As to the kind of experiment: Full-thickness punch biopsy wound model, statements covering acute and diabetic wounds together. In kind it is in vivo, mice. The following applies: histamine applied topically on 5 mm full thickness wounds, covered with Tegaderm or silk dressing, 800 nm NIR laser.
Source text: as §1, §2, §3

`NCCc1c[nH]cn1` [histamine]: in assay [1] (acute wound model), the contractile activity entry is “higher contractile activity”, the neovascularization entry was “higher neovascularization”, the re-epithelialization entry is on record as “higher re-epithelialization” and the “reduction of the dermal gap of a wound” value is listed as “improves reduction of the dermal gap”. Moreover, in assay [1] (acute wound model), the resolution of inflammation result is “better solution of inflammation”. The “tissue strength / ultimate tensile strength (UTS) of healed skin” value in assay [1] (acute wounds, day 7, compared between dressings with histamine or saline) was “higher skin strength recovery”. Moreover, in assay [2], the tissue biomechanical recovery result is given as “improved tissue biomechanical recovery” and the wound area entry is “Significant reduction in wound area”.

These data come from patent US12251478B2 (Arizona Board of Regents on behalf of Arizona State …, priority 2019, dated 2025).
